# Measured values taken from patent US20180228145A1, “ABSORBENT BINDER COMPOSITION” (Kimberly-Clark Worldwide, Inc., priority 2015, published 2018).
# Test system: E. coli
# Experiment: Kirby-Bauer Zone of Inhibition test (AATCC 147-1998), impregnated test wafers on agar plate
# Type: cell-based
# Conditions: 50 ml FAB, 1.1 g calcium chloride plus antimicrobial agent; impregnated wafer
# Method: A variety of absorbent binder compositions were formulated to contain the FAB superabsorbent polymer material, calcium chloride, and an antimicrobial agent. The absorbent binder composition contained 50 ml FAB and 1.1 g (10 mmole) calcium chloride, and the antimicrobial agent as noted in Table 2 below. The absorbent binder compositions were then analyzed according to the Kirby-Bauer Antibiotic test method which is a Zone of Inhibition test method (This test method is also known by the American Association of Textile Chemists and Colorists (AATCC) as test method 147-1998.). In this example, the antimicrobial agents incorporated into an absorbent binder composition were Benzalkonium chloride, hydrogen peroxide, and a combination of the Benzalkonium chloride and hydrogen peroxide. According to the test method, the absorbent binder compositions were then brought into contact with test wafers to impregnate the test wafers with the absorbent binder compositions. The absorbent binder composition-impregnated test wafers were then brought into contact with various pathogenic bacteria on an agar plate and the agar plates were then left to incubate according to the test method. Following incubation, the distance between the wafers and the growth of bacteria was measured.
smiles,measurement,value
"CN[C@H](CC(C)C)C(=O)N[C@H]1C(=O)N[C@@H](CC(N)=O)C(=O)N[C@H]2C(=O)N[C@H]3C(=O)N[C@H](C(=O)N[C@H](C(=O)O)c4cc(O)cc(O)c4-c4cc3ccc4O)[C@H](O)c3ccc(c(Cl)c3)Oc3cc2cc(c3O[C@@H]2O[C@H](CO)[C@@H](O)[C@H](O)[C@H]2O[C@H]2C[C@](C)(N)[C@H](O)[C@H](C)O2)Oc2ccc(cc2Cl)[C@H]1O [vancomycin wafer, vancomycin]",E. coli Zone of Inhibition,1.9 cm
